Test system: MiaPaca-2-iRFP tumors
Experiment: In vivo efficacy, subcutaneous MiaPaca-2-iRFP xenograft, intratumor treatment
Details: nude mice, twice a week, total 7 times
Description: FIG. 4A. schematic illustration of tumor inoculation and treatment schedule. Nude mice received subcutaneous (SC) injection of […] MiaPaca2-iRFP on day 0. Starting on week 4, the mice received intratumor injections of PBS, 5FU, RNAOG, RNAOG+5FU, or 5FU-RNAOG twice a week for total 7 times.
FIG. 4B. Tumor progression monitored by LI-COR Imaging of near infrared fluorescence intensity from the MiaPaca2-iRFP cell line that expresses iRFP.
FIG. 4C. Tumor dimensions were also measured for each treatment.
FIG. 4D. The survival curve of each treatment group. **and***indicate p<0.01 and p<0.001, respectively.
The in vitro tumor cell suppression effect of 5FU-RNAOG justified further investigation as to whether the combination of the RNAOG with the anticancer drug 5-fluorouracil (5FU) exerts anti-tumor activity in vivo. The human pancreatic cancer cell line, MiaPaca-2, was used as the model because it forms solid tumors in nude mice upon subcutaneous injection (SC). Specifically, MiaPaca-2 cells were engineered to express near infrared fluorescent protein (iRFP) which allows for real-time monitoring of tumor growth of live animals, especially when the tumor load is low. […] Tumor progression was monitored via the fluorescent intensity of iRFP (FIG. 4B), as well as the directly measured tumor size (FIG. 4C). […]

Structure (SMILES): O=c1[nH]cc(F)c(=O)[nH]1 [5FU, 5-fluorouracil]
- tumor progression (iRFP fluorescence intensity and tumor size): developed large tumors
